From patent US9707244B2, “Compositions and methods for treating conditions that affect epidermis” (Gencia Corporation, priority 2013, dated 2017)
“Also recorded” adds a separate entry of the source.

Assays:
[1] = tested on: ARPE-19 cells, a retinal pigmented epithelial cell line; test: WST-1 cell viability in senescent ARPE-19 cells; assay type: cell-based, human; conditions: up to 1 uM; twenty-four hours after treatment
Procedure: In the present invention ARPE-19 cells were used to evaluate whether Mitocreatine improves mitochondrial parameters and reduces ROS in a cell model of AMD. The cells were prematurely senescenced according to the protocol of Glotin et al. (2008). […] Cells were plated in a 96 well plate for analysis of WST-1 bioreduction, a formazan based dye similar to MTT whose bioreduction is largely dependent on the glycolytic production of NAD(P)H in viable cells and is routinely used to monitor cell viability.

[2] = tested on: AG11073 senescent fibroblasts; test: Intracellular collagen type I immunolabeling and image analysis; assay type: cell-based, human
Procedure: The cell line AG11073 senescent fibroblasts, at passage 20, were plated onto a multi-chambered glass slide. Dulbecco's Modified Eagle Medium (DMEM) supplemented with the appropriate serum and antibiotics and either containing vehicle or 25 nM of Mitocreatine was added to each chamber. Cells were treated once daily with fresh media containing either vehicle or 25 nM mitocreatine for seven days. At the completion of the treatment period, the cells were washed with warm PBS and fixed with ice cold acetone. The chambers were removed and the slide immunoprobed with an anti-collagen type I antibody (ab292, Abcam). An Alexa-488 secondary antibody was used for detection and DAPI used to stain nuclei.
The cells utilized were human skin fibroblast acquired from Coriell Cell Repository. The cell line AG11073 is untransformed human skin fibroblasts from a person. The primary culture was initiated from explants of a 2 mm-punch biopsy. The cell line AG16409 is untransformed human skin fibroblasts from a person. Aged senescent fibroblasts (Coriell AG11073) were cultured for 7 days with either vehicle or 25 nM mitocreatine. Cells were probed with anti-collagen type I antibody (green) and DAPI (blue) for nuclei to assess changes in collagen type I expression.
Cell area and mean pixel intensity of the green fluorescence was acquired using Image J software. Image analysis supports an increase in cell area as well as an increase in intracellular collagen type I.
Image data from the immunolabeling of collage type I study was also used to quantify the amount of collagen immunolabeling in the AG11073 senescent fibroblast treated with 25 nM Mitocreatine in vehicle for seven days.

[3] = RIPT (Repeat Insult Patch Test) study; assay type: in vivo, human; conditions: 0.1% topical formulation
[4] = tested on: AG11073 fibroblasts from a person; test: 3D collagen cell culture system, aged skin fibroblasts; assay type: cell-based, human; conditions: five days post-treatment
Procedure: The effects of Mitocreatine on skin fibroblasts cultured in a 3D matrix to better simulate in vivo milieu were examined. The cells were visualized by phase contrast light microscopy and their biological response to different concentrations of Mitocreatine evaluated. The 3D Collagen Cell Culture System from Millipore (Catalogue number ECM 675) was utilized.
All liquids were prepared according to manufacturer's instructions, and kept on ice. Tissue culture plates were coated with collagen by pipetting 500 μL of chilled Collagen Gel Solution into each well of a 24 well tissue culture plate. The plate was immediately transferred to a 37° C. incubator for 60 min to initiate polymerization of the collagen.
After the formation of the collagen gel, AG11073 and AG16409 cells were harvested and re-suspended at 4×10^5/mL and 1×10^6 cells were seeded onto the collagen gel. The cells were obtained using the procedure as described in Example 1.
After overnight incubation at 37° C. with 5% CO2 the media was replaced with fresh media containing various doses of Mitocreatine or the vehicle. Cells were visualized daily using phase contrast microscopy.
Fibroblasts from a person were cultured on a collagen matrix. Two days after seeding, cells were treated with a Mitocreatine at increasing amounts (0, 5, 15 and 25 μL). Five days post-treatment, collagen shrinkage was assayed by means of translucency. […]

[5] = tested on: AG16409 untransformed human skin fibroblasts from a person; test: Cellular senescence assay (SA-β-Gal fluorometric), young fibroblasts; assay type: cell-based; conditions: increasing concentration
Description: Senescent cells show common biochemical markers such as expression of an acidic senescence-associated β-galactosidase (SA-β-Gal) activity. While senescence has been characterized primarily in cultured cells, there is also evidence that it occurs in vivo. Cells expressing markers of senescence such as SA-β-Gal have been identified in normal tissues. To determine whether modified Mitocreatine analogues may influence the scenesence in aged fibroblasts, a 96-well Cellular Senescence Assay (SA-β-Gal Fluorometric Format) Cat # CBA-231 Cell Biolabs, Inc. was employed and buffers referenced were supplied by the manufacturer and in some cases freshly prepared prior to usage according to the manufacturer's instructions.
The cells utilized were Human Skin Fibroblast acquired from Coriell Cell Repository. The cell line AG11073 is untransformed human skin fibroblasts from a person. The primary culture was initiated from explants of a 2 mm-punch biopsy. The cell line AG16409 was untransformed human skin fibroblasts from a person.
Cells were grown in a 96 well plate. […]
50 μL, of the reaction mixture was removed to a 96-well plate suitable for fluorescence measurement. The reaction was stopped by adding 200 μL of Stop solution and fluorescence was measured with a fluorescence plate reader (PHERA Star FS from BMG Labtech) at 360 nm (Excitation)/465 nm (Emission).

allergenicity in RIPT [3]: hypoallergenic
Structure (SMILES): CN(CC(=O)NCCC[P+](c1ccccc1)(c1ccccc1)c1ccccc1)C(=N)N.Cl.[Cl-] [Mitocreatine, N^2-[ammonio(imino)methyl]-N^2-methyl-N-[3-(triphenylphosphonio)propyl] glycinamide dichloride]
cell viability (WST-1) [1]: does not negatively impact cell viability
induction in collagen type I levels ([2]; 25 nM for seven days, fluorescent intensity per area unit normalized to untreated cells): 7 fold
intracellular collagen type I ([2]; 25 nM once daily for seven days): significant increase in intracellular collagen; also recorded: significant increase in collagen type I expression
cell numbers / cell proliferation ([2]; 25 nM once daily for seven days, senescent cells): significant increase in cell numbers; also recorded: induced cell proliferation
collagen matrix translucency [4]: dose-dependent increase
β-galactosidase expression/activity (senescence marker) [5]: this decrease failed to reach statistical significance; also recorded: statistically insignificant decrease
